In PMC12508687, “Elucidating the Role and Mechanism of Alpha‐Enolase in Senescent Amelioration via Metabolic Reprogramming” (Cell Proliferation, 2025) one finds Kd data, which are given here for one molecule.

Holding throughout (assay): microscale thermophoresis (MST)
Holding throughout (format): binding
(In general: In MST a laser heats a spot of the sample, and binding alters the fluorescence response.)

The target in one assay is T1, ENO1 (S254A) (Homo sapiens, UniProt P06733, S254A).
T1 construct: His-tagged ENO1 (S254A) protein

In a further assay the target is T2, alpha-enolase (ENO1) (Homo sapiens, UniProt P06733).
T2 construct: His-tagged ENO1 protein

The next assay addresses T3, pyruvate kinase M (PKM) (Homo sapiens, UniProt P14618).
T3 construct: His-tagged PKM protein

T2 sequence (P06733 2-434): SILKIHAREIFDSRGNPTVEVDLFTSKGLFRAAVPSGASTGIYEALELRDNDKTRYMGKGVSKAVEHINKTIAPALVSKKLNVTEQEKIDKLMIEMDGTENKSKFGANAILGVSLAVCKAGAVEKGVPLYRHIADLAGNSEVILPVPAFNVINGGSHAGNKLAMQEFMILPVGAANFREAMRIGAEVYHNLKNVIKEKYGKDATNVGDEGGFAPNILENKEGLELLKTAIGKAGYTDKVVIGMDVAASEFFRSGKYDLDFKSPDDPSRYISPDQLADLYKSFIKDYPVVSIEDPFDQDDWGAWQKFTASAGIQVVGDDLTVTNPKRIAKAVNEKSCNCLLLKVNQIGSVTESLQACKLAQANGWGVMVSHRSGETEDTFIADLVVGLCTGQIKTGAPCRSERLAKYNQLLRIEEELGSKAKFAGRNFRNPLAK
T1 sequence (P06733 2-434 S254A): as the sequence (P06733 2-434) above, with S253A counted along it
T3 sequence (P14618 2-531): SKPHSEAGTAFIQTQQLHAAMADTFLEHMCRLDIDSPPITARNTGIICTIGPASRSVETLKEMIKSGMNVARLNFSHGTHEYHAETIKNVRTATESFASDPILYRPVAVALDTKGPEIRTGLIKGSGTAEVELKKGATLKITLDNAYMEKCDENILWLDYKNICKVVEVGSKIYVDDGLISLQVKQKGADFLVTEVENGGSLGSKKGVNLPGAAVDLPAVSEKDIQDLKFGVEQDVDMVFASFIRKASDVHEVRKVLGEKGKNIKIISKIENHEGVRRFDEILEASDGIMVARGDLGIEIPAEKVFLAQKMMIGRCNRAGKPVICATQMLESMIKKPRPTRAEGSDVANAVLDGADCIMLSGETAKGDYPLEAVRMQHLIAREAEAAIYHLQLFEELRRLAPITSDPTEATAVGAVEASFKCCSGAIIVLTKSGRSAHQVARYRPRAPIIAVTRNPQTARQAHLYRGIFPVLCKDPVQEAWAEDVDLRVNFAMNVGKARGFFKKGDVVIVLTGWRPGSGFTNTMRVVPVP

For `CCOC(=O)c1nc(-c2ccc(C(F)(F)F)cc2)oc1-c1cccc(C)c1` [KB2764], the results for the Kd at ENO1 (S254A), at alpha-enolase (ENO1) and on pyruvate kinase M (PKM) were 240 µM, 0.0401 µM and 9.32 µM, respectively.

A word on the Kd: it is the constant that tells how readily two partners part at equilibrium. A low value points to higher affinity.
